Target: T1, TLR8 (Homo sapiens, UniProt Q9NR97)
T1 sequence (Q9NR97 27-1041): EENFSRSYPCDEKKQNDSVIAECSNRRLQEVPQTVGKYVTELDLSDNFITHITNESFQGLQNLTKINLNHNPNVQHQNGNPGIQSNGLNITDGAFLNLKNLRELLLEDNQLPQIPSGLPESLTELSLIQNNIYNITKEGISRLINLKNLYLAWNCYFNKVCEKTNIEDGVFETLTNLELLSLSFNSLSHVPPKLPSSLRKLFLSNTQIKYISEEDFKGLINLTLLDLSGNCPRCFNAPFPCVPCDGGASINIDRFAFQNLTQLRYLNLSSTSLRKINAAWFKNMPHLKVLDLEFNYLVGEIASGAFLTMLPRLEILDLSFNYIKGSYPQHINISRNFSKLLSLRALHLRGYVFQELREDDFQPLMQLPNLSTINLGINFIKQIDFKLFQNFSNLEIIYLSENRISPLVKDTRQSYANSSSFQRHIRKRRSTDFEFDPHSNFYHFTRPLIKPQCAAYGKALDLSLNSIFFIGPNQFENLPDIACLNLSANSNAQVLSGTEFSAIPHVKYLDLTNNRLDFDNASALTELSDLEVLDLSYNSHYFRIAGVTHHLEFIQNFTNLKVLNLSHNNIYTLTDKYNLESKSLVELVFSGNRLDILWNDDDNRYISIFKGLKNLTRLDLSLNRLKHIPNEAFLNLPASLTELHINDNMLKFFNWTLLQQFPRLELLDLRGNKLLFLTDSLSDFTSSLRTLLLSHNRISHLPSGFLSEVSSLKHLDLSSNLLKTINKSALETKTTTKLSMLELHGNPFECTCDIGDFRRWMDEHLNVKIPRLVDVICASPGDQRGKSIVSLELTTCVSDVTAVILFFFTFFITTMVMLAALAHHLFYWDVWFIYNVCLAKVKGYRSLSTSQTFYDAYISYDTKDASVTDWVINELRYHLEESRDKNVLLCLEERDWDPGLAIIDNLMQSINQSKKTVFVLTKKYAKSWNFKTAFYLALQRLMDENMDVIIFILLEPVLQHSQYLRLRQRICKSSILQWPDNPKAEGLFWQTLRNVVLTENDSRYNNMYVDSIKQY
Assay: huPBMC TLR8 Antagonist IL-6 TR-FRET Assay
Assay type: cell-based
Set-up: Fresh blood was collected from normal human donors; endogenous in cells; host or cells: human PBMCs from fresh donor blood
Conditions: human PBMCs stimulated with ssRNA40 1 μg/ml (DOTAP), 14-16 hrs; IL-6 TR-FRET read-out
Procedure, shortened: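 Human PBMCs from fresh donor blood (150,000 cells/well) stimulated 14–16 h at 37 °C with DOTAP-complexed ssRNA40 (final 1 μg/ml for TLR8, 10 μg/mL for TLR7) or ODN2216 (final 0.3 μM, TLR9), 0.25% DMSO, ten-point 1/3 compound dilutions. Supernatant IL-6 read by HTRF (TLR8); IFNα by IFNα2b AlphaLISA (TLR7/TLR9).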

Point of comparison: `CCNCC(=O)NC12CCC(Cn3nc(C)c4c3CCN(c3nc(C)nc5c(C)nn(C)c35)C4)(CC1)CC2` [compound 22, 2-(ethylamino)-N-(4-((3-methyl-5-(1,3,5-trimethyl-1H-pyrazolo[4,3-c]pyrimidin-7-yl)-4,5,6,7-tetrahydro-1H-pyrazolo[4,3-c]pyridin-1-yl)methyl)bicyclo[2.2.2]octan-1-yl)acetamide], IC50 14 nM. Against it:
- CCNCC(=O)NC12CCC(Cn3nc(C)c4c3CCN(c3nc(C)nc5[nH]ncc35)C4)(CC1)CC2 [compound 20, 2-(ethylamino)-N-(4-((3-methyl-5-(6-methyl-1H-pyrazolo[3,4-d]pyrimidin-4-yl)-4,5,6,7-tetrahydro-1H-pyrazolo[4,3-c]pyridin-1-yl)methyl)bicyclo[2.2.2]octan-1-yl)acetamide] — 2.2-fold higher, 31 nM
- Cc1nc(N2CCc3c(c(C)nn3CC34CCC(N5CCOCC5)(CC3)CC4)C2)c2cn[nH]c2n1 [compound 21, 4-(4-((3-methyl-5-(6-methyl-1H-pyrazolo[3,4-d]pyrimidin-4-yl)-4,5,6,7-tetrahydro-1H-pyrazolo[4,3-c]pyridin-1-yl)methyl)bicyclo[2.2.2]octan-1-yl)morpholine] — 2.6-fold higher, 36 nM
- Cc1nc(N2CCc3c(c(C)nn3CC34CCC(NCC5COC5)(CC3)CC4)C2)c2c(n1)c(C)nn2C [compound 23, 4-((3-methyl-5-(1,3,5-trimethyl-1H-pyrazolo[4,3-c]pyrimidin-7-yl)-4,5,6,7-tetrahydro-1H-pyrazolo[4,3-c]pyridin-1-yl)methyl)-N-(oxetan-3-ylmethyl)bicyclo[2.2.2]octan-1-amine] — 27-fold higher, 373 nM
- Cc1nc(N2CCc3c(c(C)nn3CC34CCC(NC(=O)CCN(C)C)(CC3)CC4)C2)c2c(n1)c(C)nn2C [compound 24, 3-(dimethyalmino)-N-(4-((3-methyl-5-(1,3,5-trimethyl-1H-pyrazolo[4,3-d]pyrimidin-7-yl)-4,5,6,7-tetrahydro-1H-pyrazolo[4,3-c]pyridin-1-yl)methyl)bicyclo[2.2.2]octan-1-yl)propanamide] — within 1.5-fold, 10 nM
- Cc1nc(N2CCc3c(c(C)nn3CC34CCC(N5CCOCC5)(CC3)CC4)C2)c2c(n1)c(C)nn2C [compound 25, 4-(4-((3-methyl-5-(1,3,5-trimethyl-1H-pyrazolo[4,3-d]pyrimidin-7-yl)-4,5,6,7-tetrahydro-1H-pyrazolo[4,3-c]pyridin-1-yl)methyl)bicyclo[2.2.2]octan-1-yl)morpholine] — within 1.5-fold, 17 nM
- Cc1nc(N2CCc3c(c(C)nn3CC34CCC(NC5CCC5)(CC3)CC4)C2)c2c(n1)c(C)nn2C [compound 27, N-cyclobutyl-4-((3-methyl-5-(1,3,5-trimethyl-1H-pyrazolo[4,3-d]pyrimidin-7-yl)-4,5,6,7-tetrahydro-1H-pyrazolo[4,3-c]pyridin-1-yl)methyl)bicyclo[2.2.2]octan-1-amine] — the same, 14 nM
- Cc1nc(N2CCc3c(c(C)nn3CC34CCC(N(C5CCC5)C5CCC5)(CC3)CC4)C2)c2c(n1)c(C)nn2C [compound 28, N,N-dicyclobutyl-4-((3-methyl-5-(1,3,5-trimethyl-1H-pyrazolo[4,3-d]pyrimidin-7-yl)-4,5,6,7-tetrahydro-1H-pyrazolo[4,3-c]pyridin-1-yl)methyl)bicyclo[2.2.2]octan-1-amine] — 46-fold higher, 641 nM
- Cc1nc(N2CCc3c(c(C)nn3CC34CCC(N5CCCCC5)(CC3)CC4)C2)c2cn[nH]c2n1 [compound 29, 6-methyl-4-(3-methyl-1-((4-(piperidin-1-yl)bicyclo[2.2.2]octan-1-yl)methyl)-6,7-dihydro-1H-pyrazolo[4,3-c]pyridin-5(4H)-yl)-1H-pyrazolo[3,4-d]pyrimidine] — within 1.5-fold, 16 nM
- Cc1nc(N2CCc3c(c(C)nn3CC34CCC(N5CCCC5)(CC3)CC4)C2)c2cn[nH]c2n1 [compound 30, 6-methyl-4-(3-methyl-1-((4-(pyrrolidin-1-yl)bicyclo[2.2.2]octan-1-yl)methyl)-6,7-dihydro-1H-pyrazolo[4,3-c]pyridin-5(4H)-yl)-1H-pyrazolo[3,4-d]pyrimidine] — 23-fold higher, 324 nM
- Cc1nc(N2CCc3c(c(C)nn3CC34CCC(NCC5(CO)COC5)(CC3)CC4)C2)c2c(n1)c(C)nn2C [compound 31, (3-(((4-((3-methyl-5-(1,3,5-trimethyl-1H-pyrazolo[4,3-d]pyrimidin-7-yl)-4,5,6,7-tetrahydro-1H-pyrazolo[4,3-c]pyridin-1-yl)methyl)bicyclo[2.2.2]octan-1-yl)amino)methyl)oxetan-3-yl)methanol] — 1.9-fold higher, 27 nM
- Cc1nc(N2CCc3c(c(C)nn3CC34CCC(NC(=O)[C@@H]5COCCN5)(CC3)CC4)C2)c2c(n1)c(C)nn2C [compound 33, (S)-N-(4-((3-methyl-5-(1,3,5-trimethyl-1H-pyrazolo[4,3-d]pyrimidin-7-yl)-4,5,6,7-tetrahydro-1H-pyrazolo[4,3-c]pyridin-1-yl)methyl)bicyclo[2.2.2]octan-1-yl)morpholine-3-carboxamide] — 5.1-fold higher, 72 nM
- Cc1nc(N2CCc3c(c(C)nn3CC34CCC(NC(=O)[C@@H]5CNCCO5)(CC3)CC4)C2)c2c(n1)c(C)nn2C [compound 34, (S)-N-(4-((3-methyl-5-(1,3,5-trimethyl-1H-pyrazolo[4,3-d]pyrimidin-7-yl)-4,5,6,7-tetrahydro-1H-pyrazolo[4,3-c]pyridin-1-yl)methyl)bicyclo[2.2.2]octan-1-yl)morpholine-2-carboxamide] — 2.1-fold higher, 29 nM
- Cc1nc(N2CCc3c(c(C)nn3CC34CCC(NC(=O)[C@H]5CNCCO5)(CC3)CC4)C2)c2c(n1)c(C)nn2C [compound 36, (R)-N-(4-((3-methyl-5-(1,3,5-trimethyl-1H-pyrazolo[4,3-d]pyrimidin-7-yl)-4,5,6,7-tetrahydro-1H-pyrazolo[4,3-c]pyridin-1-yl)methyl)bicyclo[2.2.2]octan-1-yl)morpholine-2-carboxamide] — 5.7-fold higher, 80 nM
- Cc1nc(N2CCc3c(c(C)nn3CC34CCC(N5CCOCC5)(CC3)CC4)C2)c2c(C)noc2n1 [compound 37, 3,6-dimethyl-4-(3-methyl-1-((4-morpholinobicyclo[2.2.2]octan-1-yl)methyl)-6,7-dihydro-1H-pyrazolo[4,3-c]pyridin-5(4H)-yl)isoxazolo[5,4-d]pyrimidine] — 5.6-fold higher, 79 nM
- Cc1nc(N2CCc3c(c(C)nn3CC34CCC(N5CCCCC5)(CC3)CC4)C2)c2c(n1)c(C)nn2C [compound 38, 1,3,5-trimethyl-7-(3-methyl-1-((4-(piperidin-1-yl)bicyclo[2.2.2]octan-1-yl)methyl)-6,7-dihydro-1H-pyrazolo[4,3-c]pyridin-5(4H)-yl)-1H-pyrazolo[4,3-d]pyrimidine] — 2.2-fold higher, 31 nM
- Cc1nc(N2CCc3c(c(C)nn3CC34CCC(N5CCCCC5)(CC3)CC4)C2)c2cnn(C)c2n1 [compound 39, 1,6-dimethyl-4-(3-methyl-1-((4-(piperidin-1-yl)bicyclo[2.2.2]octan-1-yl)methyl)-6,7-dihydro-1H-pyrazolo[4,3-c]pyridin-5(4H)-yl)-1H-pyrazolo[3,4-c]pyrimidine] — 8.5-fold higher, 119 nM
- [2H]C([2H])([2H])N(C([2H])([2H])[2H])C12CCC(Cn3nc(C)c4c3CCN(c3nc(C)nc5c(C)nn(C)c35)C4)(CC1)CC2 [compound 40, 4-((3-methyl-5-(1,3,5-trimethyl-1H-pyrazolo[4,3-d]pyrimidin-7-yl)-4,5,6,7-tetrahydro-1H-pyrazolo[4,3-c]pyridin-1-yl)methyl)-N,N-bis(trideuteromethyl)bicyclo[2.2.2]octan-1-amine] — 22-fold higher, 314 nM
- Cc1nn(CC23CCC(N)(CC2)CC3)c2c1CN(c1ccnc3[nH]ncc13)CC2 [compound 41, 4-((3-methyl-5-(1H-pyrazolo[3,4-b]pyridin-4-yl)-4,5,6,7-tetrahydro-1H-pyrazolo[4,3-c]pyridin-1-yl)methyl)bicyclo[2.2.2]octan-1-amine] — 330-fold higher, 4590 nM
- Cc1c2c(nn1CC13CCC(N)(CC1)CC3)CCN(c1ccnc3[nH]ncc13)C2 [compound 42, 4-((3-methyl-5-(1H-pyrazolo[3,4-b]pyridin-4-yl)-4,5,6,7-tetrahydro-2H-pyrazolo[4,3-c]pyridin-2-yl)methyl)bicyclo[2.2.2]octan-1-amine] — higher, > 10000 nM
- Cc1cc(N2CCc3c(c(C)nn3CC34CCC(N)(CC3)C4)C2)c2cnn(C)c2n1 [compound 44, 4-((5-(1,6-dimethyl-1H-pyrazolo[3,4-b]pyridin-4-yl)-3-methyl-4,5,6,7-tetrahydro-1H-pyrazolo[4,3-c]pyridin-1-yl)methyl)bicyclo[2.2.1]heptan-1-amine] — 62-fold higher, 861 nM
